Experimental data taken from the supplement of paper PMC10307832.

Key:
Experiment in all cases: relative viability (nuclei count vs DMSO), 5 days (fraction); higher = more cells survive
GW-2580 + Vorinostat = compound: COC1=CC=C(C=C1)COC2=C(C=C(C=C2)CC3=CN=C(N=C3N)N)OC [GW-2580] + O=C(CCCCCCC(=O)Nc1ccccc1)NO [Vorinostat] (partner 1 µM)
Outline: (§1)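 A single step with final 0.05% Triton X-100, 1% formaldehyde and 1 ug/ml Hoechst fixed the cells and stained nuclei 5 days after treatment. Lung cancer cell lines in 1536-well plates had been treated by pin tool the day after seeding with one drug alone or a fixed anchor-drug dose plus five library-drug doses (not always all listed) in √10 steps, and nuclei were counted on 4× images. Relative viability is the ratio of nuclei in treated wells to nuclei in vehicle wells, taken as the median of duplicate plates.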

Fedratinib + Olaparib = compound: Cc1cnc(Nc2ccc(OCCN3CCCC3)cc2)nc1Nc1cccc(S(=O)(=O)NC(C)(C)C)c1 [Fedratinib] + O=C(c1cc(Cc2n[nH]c(=O)c3ccccc23)ccc1F)N1CCN(C(=O)C2CC2)CC1 [Olaparib] (partner 8 µM)
Outline: as §1

Fedratinib + Tozasertib = compound: Cc1cnc(Nc2ccc(OCCN3CCCC3)cc2)nc1Nc1cccc(S(=O)(=O)NC(C)(C)C)c1 [Fedratinib] + Cc1cc(Nc2cc(N3CCN(C)CC3)nc(Sc3ccc(NC(=O)C4CC4)cc3)n2)n[nH]1 [Tozasertib] (partner 0.1 µM)
Outline: as §1

Fedratinib + Dasatinib = compound: Cc1cnc(Nc2ccc(OCCN3CCCC3)cc2)nc1Nc1cccc(S(=O)(=O)NC(C)(C)C)c1 [Fedratinib] + Cc1nc(Nc2ncc(C(=O)Nc3c(C)cccc3Cl)s2)cc(N2CCN(CCO)CC2)n1 [Dasatinib] (partner 0.075 µM)
Outline: as §1

Fedratinib + Vorinostat = compound: Cc1cnc(Nc2ccc(OCCN3CCCC3)cc2)nc1Nc1cccc(S(=O)(=O)NC(C)(C)C)c1 [Fedratinib] + O=C(CCCCCCC(=O)Nc1ccccc1)NO [Vorinostat] (partner 1 µM)
Outline: as §1

Fedratinib + Decitabine = compound: Cc1cnc(Nc2ccc(OCCN3CCCC3)cc2)nc1Nc1cccc(S(=O)(=O)NC(C)(C)C)c1 [Fedratinib] + Nc1ncn([C@H]2C[C@H](O)[C@@H](CO)O2)c(=O)n1 [Decitabine] (partner 2 µM)
Outline: as §1

Row | Cell Line | relative viability (GW-2580 + Vorinostat; first compound 0.08 µM) | relative viability (GW-2580 + Vorinostat; first compound 0.8 µM) | relative viability (GW-2580 + Vorinostat; first compound 2.53 µM) | relative viability (GW-2580 + Vorinostat; first compound 8 µM) | relative viability (Fedratinib + Olaparib; first compound 0.1 µM) | relative viability (Fedratinib + Olaparib; first compound 0.3162 µM) | relative viability (Fedratinib + Olaparib; first compound 1 µM) | relative viability (Fedratinib + Tozasertib; first compound 0.1 µM) | relative viability (Fedratinib + Tozasertib; first compound 0.3162 µM) | relative viability (Fedratinib + Tozasertib; first compound 1 µM) | relative viability (Fedratinib + Dasatinib; first compound 0.1 µM) | relative viability (Fedratinib + Dasatinib; first compound 0.3162 µM) | relative viability (Fedratinib + Dasatinib; first compound 1 µM) | relative viability (Fedratinib + Vorinostat; first compound 0.1 µM) | relative viability (Fedratinib + Vorinostat; first compound 0.3162 µM) | relative viability (Fedratinib + Vorinostat; first compound 1 µM) | relative viability (Fedratinib + Decitabine; first compound 0.1 µM) | relative viability (Fedratinib + Decitabine; first compound 0.3162 µM) | relative viability (Fedratinib + Decitabine; first compound 1 µM)
1 | NCI-H727 | 1.09 | 1.26 | 1.25 | 1.26 | 0.732 | 0.787 | 0.741 | 0.493 | 0.823 | 0.656 | 0.296 | 0.299 | 0.392 | 1.15 | 1.08 | 1.13 | 0.864 | 0.792 | 0.874
2 | NCI-H2087 | 0.802 | 0.807 | 0.696 | 0.715 | 0.534 | 0.49 | 0.425 | 0.205 | 0.206 | 0.179 | 0.803 | 0.536 | 0.648 | 0.728 | 0.734 | 0.825 | 0.206 | 0.242 | 0.219
3 | BEN | 0.587 | 0.565 | 0.559 | 0.633 | 1.07 | 1.01 | 0.972 | 0.507 | 0.464 | 0.45 | 0.36 | 0.312 | 0.294 | 0.544 | 0.577 | 0.55 | 0.582 | 0.693 | 0.608
4 | LCLC-103H | 0.753 | 0.851 | 0.791 | 0.671 | 0.819 | 0.753 | 0.773 | 0.304 | 0.524 | 0.381 | 0.492 | 0.294 | 0.511 | 0.768 | 0.752 | 0.718 | 0.725 | 0.734 | 0.703
5 | EKVX | 0.711 | 0.951 | 0.808 | 0.679 | 0.969 | 0.811 | 0.853 | 0.359 | 0.343 | 0.407 | 0.498 | 0.681 | 0.532 | 0.736 | 0.737 | 0.728 | 0.315 | 0.37 | 0.363
6 | LXF-289 | 0.843 | 0.806 | 0.776 | 0.72 | 1.11 | 1.01 | 0.994 | 0.149 | 0.185 | 0.151 | 0.249 | 0.158 | 0.203 | 0.765 | 0.748 | 0.775 | 0.36 | 0.338 | 0.378
7 | ABC-1 | 0.972 | 1.17 | 1.06 | 0.98 | 0.657 | 0.984 | 0.822 | 0.179 | 0.146 | 0.138 | 0.499 | 0.629 | 0.569 | 0.983 | 1.06 | 0.888 | 0.976 | 1.09 | 1.01
8 | NCI-H650 | 0.512 | 0.502 | 0.349 | 0.416 | 0.367 | 0.372 | 0.379 | 0.312 | 0.764 | 0.69 | 0.378 | 0.434 | 0.394 | 0.381 | 0.42 | 0.332 | 0.349 | 0.372 | 0.34
9 | NCI-H1650 | 0.541 | 0.901 | 0.457 | 0.586 | 0.835 | 0.726 | 0.674 | – | 0.408 | 0.335 | – | 0.295 | 0.231 | 0.433 | 0.581 | 0.605 | 0.454 | 0.349 | 0.399
10 | NCI-H2085 | 0.786 | 0.856 | 0.735 | 0.821 | 0.73 | 0.824 | 0.765 | 0.478 | 0.827 | 0.764 | 0.259 | 0.26 | 0.246 | 0.77 | 0.825 | 0.787 | 0.53 | 0.563 | 0.518
11 | NCI-H1793 | 0.755 | 0.88 | 0.566 | 0.718 | 0.998 | 0.941 | 0.775 | 0.263 | 0.353 | 0.288 | 0.4 | 0.348 | 0.362 | 0.749 | 0.621 | 0.515 | 0.501 | 0.526 | 0.406
12 | LC-2-ad | 0.728 | 0.751 | 0.76 | 0.712 | 0.709 | 0.701 | 0.724 | 0.335 | 0.423 | 0.41 | 0.702 | 0.636 | 0.266 | 0.582 | 0.804 | 0.705 | 0.902 | 0.776 | 0.741
13 | COR-L 105 | 0.833 | 0.926 | 0.561 | 0.697 | 0.669 | 0.693 | 0.708 | 0.362 | 0.361 | 0.338 | 0.29 | 0.319 | 0.287 | 0.825 | 0.904 | 0.676 | 0.669 | 0.611 | 0.511
14 | NCI-H1355 | 0.701 | 0.656 | 0.529 | 0.697 | 0.771 | 0.817 | 0.699 | 0.325 | 0.593 | 0.421 | 0.67 | 0.75 | 0.374 | 0.688 | 0.622 | 0.596 | 0.344 | 0.353 | 0.356
15 | H3255 | 0.802 | 0.875 | 0.75 | 0.771 | 0.532 | 0.518 | 0.522 | 0.578 | 0.537 | 0.655 | 0.397 | 0.345 | 0.293 | 0.84 | 0.876 | 0.696 | 0.607 | 0.685 | 0.507
16 | NCI-H1993 | 0.993 | 0.887 | 0.661 | 0.868 | 0.949 | 1.01 | 0.839 | 0.58 | 0.575 | 0.596 | 0.591 | 0.545 | 0.62 | 0.819 | 0.872 | 0.864 | 0.473 | 0.725 | 0.704
17 | NCI-H1734 | 0.871 | 0.802 | 0.725 | 0.775 | 0.683 | 0.618 | 0.505 | 0.262 | 0.278 | 0.243 | 0.455 | 0.464 | 0.4 | 1.07 | 0.796 | 0.685 | 0.444 | 0.399 | 0.529
18 | HOP-62 | 0.736 | 0.73 | 0.539 | 0.731 | 0.712 | 0.352 | 0.518 | 0.289 | 0.362 | 0.358 | 0.739 | 0.6 | 0.503 | 0.64 | 0.605 | 0.594 | 0.224 | 0.172 | 0.202
19 | LOU-NH91 | 0.925 | 1.03 | 0.801 | 0.943 | 0.847 | 0.941 | 0.91 | 0.388 | 0.73 | 0.64 | 0.518 | 0.518 | 0.557 | 0.777 | 1.09 | 0.782 | 0.756 | 0.798 | 0.785
20 | ChaGo-K-1 | 0.743 | 0.726 | 0.768 | 0.794 | 0.469 | 0.402 | 0.391 | 0.213 | 0.245 | 0.217 | 0.515 | 0.437 | 0.496 | 0.74 | 0.757 | 0.718 | 0.488 | 0.513 | 0.544
21 | PC-14 | 0.919 | 0.977 | 0.724 | 0.607 | 0.371 | 0.324 | 0.309 | 0.436 | 0.59 | 0.583 | 0.167 | 0.272 | 0.143 | 0.761 | 0.83 | 0.727 | 0.193 | 0.23 | 0.094
22 | NCI-H1437 | 0.923 | 0.918 | 0.674 | 0.534 | 0.627 | 0.645 | 0.598 | 0.398 | 0.417 | 0.368 | 0.301 | 0.409 | 0.329 | 0.816 | 0.892 | 0.922 | 0.603 | 0.583 | 0.6
23 | NCI-H460 | 0.85 | 1.11 | 0.721 | 0.631 | 0.483 | 0.395 | 0.415 | 0.078 | 0.379 | 0.334 | 0.496 | 0.415 | 0.329 | 1.14 | 0.768 | 0.736 | 0.556 | 0.495 | 0.232
24 | NCI-H1666 | 1.08 | 1.16 | 0.94 | 0.967 | 0.792 | 0.751 | 0.747 | 0.558 | 0.599 | 0.514 | 0.843 | 0.675 | 0.731 | 1.07 | 1.1 | 0.928 | 0.638 | 0.746 | 0.7
25 | SW 900 | 0.53 | 0.517 | 0.419 | 0.528 | 0.95 | 0.887 | 0.695 | 0.358 | 0.502 | 0.434 | 0.498 | 0.51 | 0.643 | 0.344 | 0.377 | 0.462 | 0.399 | 0.425 | 0.516
26 | NCI-H1651 | 0.516 | 0.636 | 0.534 | 0.555 | 0.173 | 0.169 | 0.169 | 0.537 | 0.616 | 0.623 | 0.437 | 0.418 | 0.329 | 0.498 | 0.567 | 0.552 | 0.365 | 0.629 | 0.618
27 | NCI-H1755 | 1.03 | 0.77 | 0.7 | 0.748 | 0.898 | 0.861 | 0.855 | 0.53 | 0.524 | 0.523 | 0.351 | 0.404 | 0.39 | 0.761 | 0.786 | 0.705 | 0.662 | 0.723 | 0.664
28 | NCI-H661 | 0.86 | 0.801 | 0.767 | 0.632 | 0.713 | 0.77 | 0.748 | 0.327 | 0.326 | 0.371 | 0.83 | 0.912 | 0.612 | 0.785 | 0.833 | 0.716 | 0.566 | 0.54 | 0.423
